Test results published in paper PMC12040169 (PLOS Biology, 2025).

test: in vitro; conditions: human, hela cells, % viability

Point of comparison: `CCn1c(C)cc2cc(NS(=O)(=O)c3ccc4[nH]c(=O)[nH]c(=O)c4c3)ccc21` [CBK286363], viability at 28.5 h, 10 µM 104%. Against it:
- Cc1ccc(N2CCCC2=O)cc1S(=O)(=O)NC(c1ccccc1)c1ccccc1 [CBK286348] — lower, 85.6%
- Oc1ccc2c(c1)C(O)CC1(CCN(CC(O)c3ccc(-c4ccccc4)cc3)CC1)O2 (stereo not shown) [CBK286351] — lower, 91.3%
- COc1ccccc1-c1ccc(NS(=O)(=O)c2ccc3c(c2)CCC(=O)N3)cc1 [CBK286353] — lower, 82.5%
- COc1ccc(N2CCN(CC(O)c3c[nH]c4cc(OC)ccc34)CC2)cc1 (stereo not shown) [CBK286355] — lower, 96.1%
- Cc1cccnc1C(Cc1ccsc1)NS(=O)(=O)c1ccc2[nH]c(=O)[nH]c(=O)c2c1 (stereo not shown) [CBK286356] — higher, 111%
- O=c1[nH]c(=O)c2cc(S(=O)(=O)Nc3ccc(N4CCCCCC4)cc3)ccc2[nH]1 [CBK286361] — lower, 81.4%
- Cc1cc2ccccc2n1CCCNS(=O)(=O)c1ccc2[nH]c(=O)[nH]c(=O)c2c1 [CBK286362] — lower, 96%
- O=C1CCc2cc(S(=O)(=O)Nc3ccccc3-c3ccccc3)ccc2N1 [CBK286366] — lower, 92.6%
- O=C1CCc2cc(S(=O)(=O)Nc3ccccc3Cc3ccccc3)ccc2N1 [CBK286369] — lower, 87%
- COc1cccc(-c2cccc(NS(=O)(=O)c3ccc4c(c3)CCC(=O)N4)c2)c1 [CBK286372] — higher, 105%
- O=c1[nH]c(=O)c2cc(S(=O)(=O)Nc3ccccc3-c3ccccc3)ccc2[nH]1 [CBK286374] — lower, 102%
- CC1CCCN(c2ccc(NS(=O)(=O)c3ccc4[nH]c(=O)[nH]c(=O)c4c3)cc2)C1 (stereo not shown) [CBK286376] — lower, 97.5%
- O=c1[nH]c(=O)c2cc(S(=O)(=O)N3CCN(c4ccccn4)CC3)ccc2[nH]1 [CBK286379] — higher, 112%
- O=c1[nH]c(=O)c2cc(S(=O)(=O)N3CCCC(c4ccccc4)C3)ccc2[nH]1 (stereo not shown) [CBK286381] — higher, 106%
- O=c1[nH]c(=O)c2cc(S(=O)(=O)N3CCC(c4ccccc4)C3)ccc2[nH]1 (stereo not shown) [CBK286382] — higher, 105%
- O=c1[nH]c(=O)c2cc(S(=O)(=O)Nc3ccc(Cn4ccnc4)cc3)ccc2[nH]1 [CBK286383] — higher, 105%
- O=c1[nH]c(=O)c2cc(S(=O)(=O)NCC3CCN(Cc4ccccc4)C3)ccc2[nH]1 (stereo not shown) [CBK286384] — lower, 90%
- O=c1[nH]c(=O)c2cc(S(=O)(=O)Nc3ccc(Oc4cccnc4)cc3)ccc2[nH]1 [CBK286386] — lower, 99.2%
- O=c1[nH]c(=O)c2cc(S(=O)(=O)NCC3(c4ccccc4)CCCC3)ccc2[nH]1 [CBK286387] — higher, 112%
- O=c1[nH]c(=O)c2cc(S(=O)(=O)Nc3cccc(CCc4ccccn4)c3)ccc2[nH]1 [CBK286389] — lower, 97.9%
- CC(C)C1c2cccn2CCN1S(=O)(=O)c1ccc2[nH]c(=O)[nH]c(=O)c2c1 (stereo not shown) [CBK286391] — lower, 99.6%
- COc1ccc2c(c1)OC1(CCN(C(=O)C3CCCC3)CC1)CC2O (stereo not shown) [CBK286400] — lower, 84.4%
- Cc1cc(C2CCCCCN2S(=O)(=O)c2ccc3[nH]c(=O)[nH]c(=O)c3c2)on1 (stereo not shown) [CBK286405] — lower, 93.6%
- Cn1cc(C2CCCCCN2S(=O)(=O)c2ccc3[nH]c(=O)[nH]c(=O)c3c2)cn1 (stereo not shown) [CBK286406] — lower, 103%
- Cn1ccc(C2CCCCCN2S(=O)(=O)c2ccc3[nH]c(=O)[nH]c(=O)c3c2)n1 (stereo not shown) [CBK286407] — lower, 71.1%
- COc1ccc2[nH]c(=O)c(CNc3ccc4c(c3)-c3ccccc3S(=O)(=O)N4)cc2c1 [CBK286409] — lower, 84.2%
- c1coc(CNc2ncc(-c3ccc4c(c3)OCO4)c(-c3cccs3)n2)c1 [CBK286414] — lower, 93.9%
- O=C(NCc1cccs1)C1(Cc2ccccc2-c2ccc(F)c(F)c2)CCOCC1 [CBK286417] — lower, 93.2%
- COc1ccccc1CN1CCC(Cc2ccccc2-c2ccc(C)cc2C)(C(=O)O)CC1 [CBK286419] — lower, 88.4%
- Cc1nc2cc(-c3nccn3C)nn2c(N2CCN(c3ccc(O)cc3)CC2)c1C [CBK286427] — lower, 92.8%
- CC(=O)NC1(c2ccccc2F)CCN(c2ncc(-c3ccco3)c(-c3ccco3)n2)CC1 [CBK286428] — lower, 95.3%
- O=C(NCc1ccc(CO)cc1)[C@@H]1CN(Cc2ccccc2)C[C@H]1C(=O)c1ccc(F)cc1 [CBK286430] — lower, 97.8%
- CC(=O)N1CCc2sccc2C1c1ccccc1NCc1ccoc1 (stereo not shown) [CBK286432] — lower, 91.6%
- CC(=O)N1CCc2sccc2C1c1ccc(NC(=O)c2ccc(F)cc2)cc1 (stereo not shown) [CBK286434] — lower, 89%
- COCC(=O)N1CCc2sccc2C1c1ccc(NC(=O)c2ccc(F)cc2)cc1 (stereo not shown) [CBK286435] — lower, 93.8%
- O=C(c1ccsc1)N1CCC2(CC1)CN(Cc1ccccc1)CC(c1ccccc1)O2 (stereo not shown) [CBK286438] — lower, 94.4%
- Cc1nccc(-c2cccc(NC3CCN(c4ccc5c(c4)OCCO5)CC3)c2)n1 [CBK286439] — lower, 97.1%
- Cc1cccc(CN2CCN(c3ccccc3C(O)c3nccn3C)CC2)c1 (stereo not shown) [CBK286441] — lower, 88.5%
- COc1cccc(CNc2ccc(C3c4ccsc4CCN3C(C)=O)cc2)c1 (stereo not shown) [CBK286443] — higher, 109%
